Results taken from ChEMBL document CHEMBL2062376, “Novel oxazolo[4,5-g]quinazolin-2(1H)-ones: dual inhibitors of EGFR and Src protein tyrosine kinases” (Eur J Med Chem, 2012).
pIC50: −log10 of the molar value. Calls of active or inactive are those of the source. The calls are words filed in the database; no cut-off is given here.

Columns and labels:
[1] = molecular target: T1, Epidermal growth factor receptor (Homo sapiens, UniProt P00533)
[2] = tested on: KB; test: Antiproliferative activity against human KB cells expressing EGFR and SRC by MTT assay; assay type: functional, cell-based
[3] = tested on: A498; test: Antiproliferative activity against human A498 cells expressing EGFR and SRC by MTT assay; assay type: functional, cell-based
[4] = molecular target: T1, Epidermal growth factor receptor; test: Inhibition of EGFR at >100 uM
[5] = molecular target: Proto-oncogene tyrosine-protein kinase Src (Homo sapiens, UniProt P12931); test: Inhibition of SRC
Proto-oncogene tyrosine-protein kinase Src, sequence (P12931 2-536 limits assumed): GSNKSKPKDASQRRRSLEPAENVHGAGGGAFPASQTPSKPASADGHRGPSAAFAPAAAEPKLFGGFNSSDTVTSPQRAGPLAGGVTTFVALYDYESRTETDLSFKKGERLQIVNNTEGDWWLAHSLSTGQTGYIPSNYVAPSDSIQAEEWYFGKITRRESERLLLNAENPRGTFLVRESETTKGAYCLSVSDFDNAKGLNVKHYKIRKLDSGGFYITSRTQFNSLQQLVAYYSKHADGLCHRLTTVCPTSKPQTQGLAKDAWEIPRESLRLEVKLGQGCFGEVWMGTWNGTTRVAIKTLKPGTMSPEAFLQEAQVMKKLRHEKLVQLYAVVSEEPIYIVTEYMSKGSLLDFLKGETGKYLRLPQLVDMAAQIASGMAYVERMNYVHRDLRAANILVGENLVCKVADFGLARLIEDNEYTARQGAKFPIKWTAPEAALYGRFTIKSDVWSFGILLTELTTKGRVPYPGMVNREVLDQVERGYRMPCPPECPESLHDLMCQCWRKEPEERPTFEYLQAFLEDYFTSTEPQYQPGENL

T1 sequence (P00533 whole entry): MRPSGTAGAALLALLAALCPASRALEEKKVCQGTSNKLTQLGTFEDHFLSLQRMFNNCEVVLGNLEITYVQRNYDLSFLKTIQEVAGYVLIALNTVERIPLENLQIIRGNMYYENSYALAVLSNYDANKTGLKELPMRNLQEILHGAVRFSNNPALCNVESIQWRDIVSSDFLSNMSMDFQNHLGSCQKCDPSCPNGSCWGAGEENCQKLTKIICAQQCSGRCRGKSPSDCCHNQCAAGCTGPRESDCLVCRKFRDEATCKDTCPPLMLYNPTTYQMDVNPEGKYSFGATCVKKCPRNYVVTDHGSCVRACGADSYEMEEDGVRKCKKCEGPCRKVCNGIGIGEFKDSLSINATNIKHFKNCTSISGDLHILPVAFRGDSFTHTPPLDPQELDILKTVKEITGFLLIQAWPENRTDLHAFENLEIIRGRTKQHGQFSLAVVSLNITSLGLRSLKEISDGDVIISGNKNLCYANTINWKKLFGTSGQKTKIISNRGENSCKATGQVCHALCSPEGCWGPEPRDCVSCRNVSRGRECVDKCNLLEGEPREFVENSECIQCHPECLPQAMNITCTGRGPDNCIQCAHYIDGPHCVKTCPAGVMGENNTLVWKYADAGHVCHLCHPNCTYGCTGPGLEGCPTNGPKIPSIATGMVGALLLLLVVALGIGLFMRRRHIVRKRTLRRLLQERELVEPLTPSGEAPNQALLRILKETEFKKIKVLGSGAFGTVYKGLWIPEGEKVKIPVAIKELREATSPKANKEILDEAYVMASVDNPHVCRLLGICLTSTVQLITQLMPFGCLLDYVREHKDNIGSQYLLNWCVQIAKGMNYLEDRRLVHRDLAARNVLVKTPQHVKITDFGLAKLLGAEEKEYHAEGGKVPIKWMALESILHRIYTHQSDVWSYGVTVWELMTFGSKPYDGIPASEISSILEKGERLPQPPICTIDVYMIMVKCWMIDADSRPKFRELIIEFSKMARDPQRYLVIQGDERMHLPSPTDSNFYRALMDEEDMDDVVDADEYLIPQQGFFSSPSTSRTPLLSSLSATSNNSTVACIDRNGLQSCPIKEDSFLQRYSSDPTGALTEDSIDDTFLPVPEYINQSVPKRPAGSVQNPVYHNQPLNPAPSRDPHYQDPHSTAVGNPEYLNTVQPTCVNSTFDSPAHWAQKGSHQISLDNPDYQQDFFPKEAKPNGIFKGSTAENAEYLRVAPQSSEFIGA

Cc1c(OCC(F)(F)F)ccnc1COc1ccc(Nc2ncnc3cc4oc(=O)n(CCCN5CCOCC5)c4cc23)cc1
pIC50 [1]: 5.11

O=c1oc2cc3ncnc(Nc4ccc(OCc5ccc(Cl)cc5)cc4)c3cc2n1CCCN1CCOCC1
pIC50 [1]: 6.00 | pIC50 [2]: 4.43 | pIC50 [3]: 5.13

C#Cc1cccc(Nc2ncnc3cc4oc(=O)n(CCCN5CCOCC5)c4cc23)c1
pIC50 [1]: 6.42

CC(C)(C)c1ccc(Nc2ncnc3cc4oc(=O)n(CCCN5CCOCC5)c4cc23)cc1
pIC50 [1]: 4.10

COc1ccc(Nc2ncnc3cc4oc(=O)n(CCCN5CCOCC5)c4cc23)cc1
pIC50 [1]: 6.42

Cc1c(OCC(F)(F)F)ccnc1COc1cccc(Nc2ncnc3cc4oc(=O)n(CCCN5CCOCC5)c4cc23)c1
pIC50 [1]: 7.00 | pIC50 [2]: 4.80 | pIC50 [3]: 4.45

C[C@@H](Nc1ncnc2cc3oc(=O)n(CCCN4CCOCC4)c3cc12)c1ccccc1
pIC50 [1]: 5.35

CC(=O)c1cccc(Nc2ncnc3cc4oc(=O)n(CCCN5CCOCC5)c4cc23)c1
pIC50 [1]: 5.17

O=c1oc2cc3ncnc(Nc4ccc(F)c(Cl)c4)c3cc2n1CCCN1CCOCC1
pIC50 [1]: 7.11 | pIC50 [2]: 5.19 | pIC50 [3]: 4.49

O=c1oc2cc3ncnc(NCc4ccccc4)c3cc2n1CCCN1CCOCC1
pIC50 [1]: 4.19

O=C(OCc1ccc(Cl)cc1)c1ccc(Nc2ncnc3cc4oc(=O)n(CCCN5CCOCC5)c4cc23)cc1
inhibition [4]: inactive

Cc1cc(C)cc(Nc2ncnc3cc4oc(=O)n(CCCN5CCOCC5)c4cc23)c1
pIC50 [1]: 4.12

O=c1oc2cc3ncnc(Nc4ccc(OCc5ccc(Cl)cc5)c(Cl)c4)c3cc2n1CCCN1CCOCC1
pIC50 [1]: 7.21 | pIC50 [2]: 6.09 | pIC50 [3]: 5.52

CCOC(=O)c1ccc(O)c(Nc2ncnc3cc4oc(=O)n(CCCN5CCOCC5)c4cc23)c1
pIC50 [1]: 6.64 | pIC50 [2]: 5.09 | pIC50 [3]: 4.80

NS(=O)(=O)c1ccc(Nc2ncnc3cc4oc(=O)n(CCCN5CCOCC5)c4cc23)cc1
inhibition [4]: inactive

O=c1oc2cc3ncnc(Nc4ccc(OCc5ccccn5)cc4)c3cc2n1CCCN1CCOCC1
pIC50 [1]: 5.77

CCOC(=O)c1ccc(Nc2ncnc3cc4oc(=O)n(CCCN5CCOCC5)c4cc23)cc1
pIC50 [1]: 5.24 | pIC50 [5]: 5.51 | pIC50 [2]: 5.22 | pIC50 [3]: 5.06

Cc1ccc(Nc2ncnc3cc4oc(=O)n(CCCN5CCOCC5)c4cc23)cc1
pIC50 [1]: 7.17 | pIC50 [5]: 5.12

COc1ccc(Nc2ncnc3cc4oc(=O)n(CCCN5CCOCC5)c4cc23)cc1OC
inhibition [4]: inactive

C[C@H](Nc1ncnc2cc3oc(=O)n(CCCN4CCOCC4)c3cc12)c1ccccc1
pIC50 [1]: 5.43

CN(c1ccccc1)c1ncnc2cc3oc(=O)n(CCCN4CCOCC4)c3cc12
pIC50 [1]: 5.14

CC(=O)Nc1ccc(Nc2ncnc3cc4oc(=O)n(CCCN5CCOCC5)c4cc23)cc1
inhibition [4]: inactive

O=c1oc2cc3ncnc(Nc4ccc(OCc5ccccc5)cc4)c3cc2n1CCCN1CCOCC1
pIC50 [1]: 6.85 | pIC50 [2]: 4.42 | pIC50 [3]: 4.83

O=c1oc2cc3ncnc(N[C@H]4CC[C@H](O)CC4)c3cc2n1CCCN1CCOCC1
inhibition [4]: inactive

CN1CCN(c2ncnc3cc4oc(=O)n(CCCN5CCOCC5)c4cc23)CC1
inhibition [4]: inactive

CN(C)S(=O)(=O)c1ccc2c(c1)/C(=C/c1cc3c([nH]1)CCCC3)C(=O)N2
pIC50 [5]: 7.14

O=c1oc2cc3ncnc(Nc4ccccc4O)c3cc2n1CCCN1CCOCC1
pIC50 [1]: 4.52

O=c1oc2cc3ncnc(Nc4ccc(O)cc4)c3cc2n1CCCN1CCOCC1
inhibition [4]: inactive | pIC50 [5]: 4.18

O=c1oc2cc3ncnc(Nc4ccc5[nH]ncc5c4)c3cc2n1CCCN1CCOCC1
pIC50 [1]: 6.92 | pIC50 [2]: 4.73 | pIC50 [3]: 4.73

O=c1oc2cc3ncnc(Nc4ccc(Cl)cc4)c3cc2n1CCCN1CCOCC1
inhibition [4]: inactive

O=c1oc2cc3ncnc(Nc4ccc(F)c(F)c4)c3cc2n1CCCN1CCOCC1
pIC50 [1]: 6.24

Cc1ccccc1Nc1ncnc2cc3oc(=O)n(CCCN4CCOCC4)c3cc12
inhibition [4]: inactive

CC(C)Oc1cccc(Nc2ncnc3cc4oc(=O)n(CCCN5CCOCC5)c4cc23)c1
pIC50 [1]: 5.52
